Starred links: 1 amine or outer side, 2 acyl side, 3 side chain; linkers in the order of their positions; H or OH if unused. Non-standard residues stand in square brackets, D forms with d. Residues, ends and D or L forms follow the SMILES beside them. Groups on a side chain read outwards from the residue. *: point of attachment. C18 diacid = O=C(O)CCCCCCCCCCCCCCCCC(=O)*; γGlu = O=C(O)[C@H](CCC(=O)[*:2])N[*:1]; αMeF = C[C@](N)(Cc1ccccc1)C(=O)O; AEEA = NCCOCCOCC(=O)O; Aib = CC(C)(N)C(=O)O

For test [1], the target named is human GLP-1 receptor (hGLP-1R) (Homo sapiens, UniProt P43220). Put plainly: cAMP production (HTRF) in CHO cells expressing hGLP-1R. Set-up: expressed in transfected cells. The format is cell-based. Conditions: for EC50: Table 6, peptides modified at position 17, cAMP in CHO hGLP-1R cells, geometric mean, read-out: hGLP-1R EC50; for % Relative Potency Ratio: Table 6, % GLP-1R activity relative to GLP-1 / % GlucR activity relative to glucagon. The method in brief:
(§1)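 Cells were resuspended in assay buffer at batch-optimized density, typically 1×10^5 cells/mL for hGLP-1R and 2×10^5 cells/mL for hGCGR. After 30 min incubation at room temperature with compound, cAMP was measured by two-step HTRF. EC50 values came from 4-parameter logistic fits of % Delta F.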
On the technique in general: Cyclic AMP is a second messenger, typically raised through Gs and lowered through Gi signalling.

In test [2] the target is human glucagon receptor (hGCGR) (Homo sapiens, UniProt P47871). Kind of test: cAMP production (HTRF) in CHO cells expressing hGCGR. The format is cell-based. Conditions: Table 6, peptides modified at position 17; cAMP in CHO hGCGR cells; geometric mean; read-out: hGluc-R EC50. Set-up: expressed in transfected cells. In short, it runs like this:
as §1

human glucagon receptor (hGCGR), sequence (P47871 26-477): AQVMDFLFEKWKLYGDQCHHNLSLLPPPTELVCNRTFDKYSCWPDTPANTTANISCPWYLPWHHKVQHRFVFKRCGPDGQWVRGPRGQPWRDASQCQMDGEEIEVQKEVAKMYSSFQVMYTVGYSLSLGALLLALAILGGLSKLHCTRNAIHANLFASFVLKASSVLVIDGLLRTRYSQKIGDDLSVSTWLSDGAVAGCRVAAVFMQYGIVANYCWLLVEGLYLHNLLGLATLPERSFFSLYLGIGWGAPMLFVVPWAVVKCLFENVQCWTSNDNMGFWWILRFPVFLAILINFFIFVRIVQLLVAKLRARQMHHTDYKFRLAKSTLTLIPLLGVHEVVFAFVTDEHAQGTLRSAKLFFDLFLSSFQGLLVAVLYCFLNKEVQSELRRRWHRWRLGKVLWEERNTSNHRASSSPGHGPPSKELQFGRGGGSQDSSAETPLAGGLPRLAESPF
human GLP-1 receptor (hGLP-1R), sequence (P43220 24-463): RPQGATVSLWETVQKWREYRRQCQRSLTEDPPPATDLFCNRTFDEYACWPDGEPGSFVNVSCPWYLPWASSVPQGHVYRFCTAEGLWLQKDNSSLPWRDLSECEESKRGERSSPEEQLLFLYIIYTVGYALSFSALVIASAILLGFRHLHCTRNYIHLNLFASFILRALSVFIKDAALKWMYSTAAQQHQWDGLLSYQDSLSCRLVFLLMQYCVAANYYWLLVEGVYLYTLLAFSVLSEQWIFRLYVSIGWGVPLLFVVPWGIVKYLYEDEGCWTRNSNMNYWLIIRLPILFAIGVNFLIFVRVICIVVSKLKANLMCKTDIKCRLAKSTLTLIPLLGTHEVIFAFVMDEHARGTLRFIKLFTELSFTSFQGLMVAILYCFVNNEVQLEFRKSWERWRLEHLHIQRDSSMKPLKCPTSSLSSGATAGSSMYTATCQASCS

What is called EC50 is the concentration giving half of the maximal effect. In the case of `CC(C)C[C@H](NC(=O)[C@H](Cc1c[nH]c2ccccc12)NC(=O)[C@H](CCCNC(=N)N)NC(=O)[C@@H](NC(=O)[C@H](Cc1ccccc1)NC(=O)[C@H](CC(=O)O)NC(=O)[C@H](CCC(N)=O)NC(=O)[C@H](C)NC(=O)[C@H](CCCNC(=N)N)NC(=O)[C@H](CCCCNC(=O)COCCOCCNC(=O)COCCOCCNC(=O)CC[C@H](NC(=O)CCCCCCCCCCCCCCCCC(=O)O)C(=O)O)NC(=O)[C@H](CCCCN)NC(=O)[C@H](CC(=O)O)NC(=O)[C@H](CC(C)C)NC(=O)[C@](C)(Cc1ccccc1)NC(=O)[C@H](CCCCN)NC(=O)[C@H](CO)NC(=O)[C@@H](NC(=O)[C@H](CC(=O)O)NC(=O)[C@H](CO)NC(=O)[C@@H](NC(=O)[C@H](Cc1ccccc1)NC(=O)[C@@H](NC(=O)CNC(=O)[C@H](CCC(N)=O)NC(=O)C(C)(C)NC(=O)[C@@H](N)Cc1c[nH]cn1)[C@@H](C)O)[C@@H](C)O)C(C)C)C(C)C)C(=O)N[C@@H](CC(C)C)C(=O)N[C@@H](CCCNC(=N)N)C(=O)NC(C)(C)C(=O)N[C@@H](CCCCN)C(=O)O` [Peptide 426] (H-H[Aib]QGTFTSDVSK[αMeF]LDKK([AEEA-AEEA-γGlu-C18 diacid])RAQDFVRWLLR[Aib]K-OH; N-terminus assumed), in test [1], the EC50 was 7.3 pM and the “% Relative Potency Ratio” value amounted to 16.6. Also, the EC50 in test [2] is 61.2 pM.
Taken in the same sequence, the figures for `CC(C)C[C@H](NC(=O)[C@H](Cc1c[nH]c2ccccc12)NC(=O)[C@H](CCC(N)=O)NC(=O)[C@@H](NC(=O)[C@H](Cc1ccccc1)NC(=O)[C@H](CC(=O)O)NC(=O)[C@H](CCCNC(=N)N)NC(=O)[C@H](C)NC(=O)[C@H](CCCNC(=N)N)NC(=O)[C@H](CCCCNC(=O)COCCOCCNC(=O)COCCOCCNC(=O)CC[C@H](NC(=O)CCCCCCCCCCCCCCCCC(=O)O)C(=O)O)NC(=O)[C@@H](NC(=O)[C@H](CC(=O)O)NC(=O)[C@H](CC(C)C)NC(=O)[C@](C)(Cc1ccccc1)NC(=O)[C@H](CCCCN)NC(=O)[C@H](CO)NC(=O)[C@@H](NC(=O)[C@H](CC(=O)O)NC(=O)[C@H](CO)NC(=O)[C@@H](NC(=O)[C@H](Cc1ccccc1)NC(=O)[C@@H](NC(=O)CNC(=O)[C@H](CCC(N)=O)NC(=O)C(C)(C)NC(=O)[C@@H](N)Cc1c[nH]cn1)[C@@H](C)O)[C@@H](C)O)C(C)C)[C@@H](C)O)C(C)C)C(=O)N[C@@H](CC(C)C)C(=O)N[C@@H](CCC(=O)O)C(=O)NC(C)(C)C(=O)NCC(N)=O` [Peptide 427] were 12.4 pM, 7.5 and 47.2 pM.
`CC(C)C[C@H](NC(=O)[C@H](Cc1c[nH]c2ccccc12)NC(=O)[C@H](CCC(N)=O)NC(=O)[C@@H](NC(=O)[C@H](Cc1ccccc1)NC(=O)[C@H](CC(=O)O)NC(=O)[C@H](CCCNC(=N)N)NC(=O)[C@H](C)NC(=O)[C@H](CCCNC(=N)N)NC(=O)[C@H](CCCCNC(=O)COCCOCCNC(=O)COCCOCCNC(=O)CC[C@H](NC(=O)CC[C@H](NC(=O)CCCCCCCCCCCCCCCCC(=O)O)C(=O)O)C(=O)O)NC(=O)[C@@H](NC(=O)[C@H](CC(=O)O)NC(=O)[C@H](CC(C)C)NC(=O)[C@](C)(Cc1ccccc1)NC(=O)[C@H](CCCCN)NC(=O)[C@H](CO)NC(=O)[C@@H](NC(=O)[C@H](CC(=O)O)NC(=O)[C@H](CO)NC(=O)[C@@H](NC(=O)[C@H](Cc1ccccc1)NC(=O)[C@@H](NC(=O)CNC(=O)[C@H](CCC(N)=O)NC(=O)C(C)(C)NC(=O)[C@@H](N)Cc1c[nH]cn1)[C@@H](C)O)[C@@H](C)O)C(C)C)[C@@H](C)O)C(C)C)C(=O)N[C@@H](CC(C)C)C(=O)N[C@@H](CCC(=O)O)C(=O)NC(C)(C)C(=O)NCC(N)=O` [Peptide 428]: the EC50 came out at 33.1 pM in test [1] and 10.5 pM in test [2]. Further, the “% Relative Potency Ratio” value in test [1] came out at 0.6.

Values taken from US20250353891A1 (MEDIMMUNE LIMITED, priority 2022, published 2025).
